Reference: patent US20130237590A1, “ASSESSING THYROID NEOPLASMS” (MAYO FOUNDATION FOR MEDICAL EDUCATION AND RESEARCH, priority 2010, published 2013)

Key:
miR-122 [1] = assay: miR-122 quantitation by quantitative RT-PCR in WRO cells; type: cell-based; conditions: WRO-vector cells treated with 10 μM GW9662 for 24 hours
Protocol: (§1) To generate stable lines, cells were seeded at 1×10^6 cells per 100 mm petri dish and transfected 24 hours later in multiples of six, with 10 μg each of vector or PPFP using LT-1 (Minus Bio, Madison, Wis.). For the generation of DN-PPARγ and miR stable cells, the DN-PPARγ construct (Reddi et al., Expression of the PAX8/PPARγ Fusion Protein Is Associated with Decreased Neovascularization In Vivo: Impact on Tumorigenesis and Disease Prognosis, Genes and Cancer, (2010)), mmu-Null, and mmu-miR122-EGFP constructs (Cellbio labs) were used. After 72 hours, WRO-Vector, WRO-PPFP, WRO-DN-PPARγ, FTC-Vector, and FTC−PPFP cells were obtained by selection in media containing 400 μg/mL of G418 (Invitrogen) with media changes every 72 hours. WRO-miR-Null and WRO-miR-122 cells were generated using 2.5 μg/mL puromycin selection. Pools of cells were harvested and analyzed for mRNA and microRNA expression by quantitative RT-PCR and for polypeptide expression by Western blotting.
(§2) RNA from each group of cells was isolated using TriZol Reagent (Invitrogen). […] PAX8/PPARγ fusion gene was detected by PCR using 5 μL of cDNA and a sense primer from exon 7 of PAX8 (5′-CGCGGATCCGCATT-GACTCACAGAGCA-3; SEQ ID NO:1; see, also, GenBank Accession No. NM_013953 and GI No.81295803) and antisense primer from exon 1 of PPARγ1 (5′-[…]-3; SEQ ID NO:2; GenBank Accession No. NM_138712 and GI No. 116284369). […]

PPARγ [2] = assay: PPRE luciferase reporter assay in WRO cells; type: cell-based
Protocol: (§3) Cells (0.3×10^6 cells/well) in six well plates were transfected using LT-1 reagent (Mirus, Madison Wis.) with 10 ng of Renilla (Promega, Madison, Wis.) and […] of PPRE-Aco-Luc reporter in triplicate. After 24 hours, cells were lysed and assayed using the dual luciferase kit (Promega). Data was calculated as a ratio of the luciferase to renilla expression and plotted as fold-change compared to vector. To test the effect of GW9662 on PPARγ activity, cells were treated 18 hours post transfection with either 2 μL DMSO or 10 μM GW9662 (a potent antagonist of PPARγ) for 24 hours prior to harvest and assay.

ADAM-17 [3] = assay: ADAM-17 transcript levels in immortalized thyrocytes; type: cell-based; conditions: immortalized thyrocytes (N-Thy-ori cells) expressing PPFP
DRO cells = assay: in vivo xenograft tumor formation assay, DRO melanoma cells; design: species or system athymic nude mice; conditions: DRO-PPFP melanoma cells; by 6 weeks
Protocol: (§4) To generate stable lines, cells were seeded at 1×10^6 cells per 100 mm petri dish and transfected 24 hours later in multiples of six, with 10 μg each of vector or PPFP using LT-1 (Minus Bio, Madison, Wis.). After 72 hours, ARO-Vector, ARO-PPFP, DRO-Vector, DRO-PPFP, FRO-Vector, FRO-PPFP, KTC-3-Vector, and KTC-3-PPFP cells were obtained by selection in media containing 400 μg/mL of G418 (Invitrogen) with media changes every 72 hours. Pools of cells were harvested and analyzed for PPFP expression by reverse transcriptase PCR.
(§5) Stable cells (10^7) were resuspended in 100 μL of growth media and injected subcutaneously into both flanks of 5 week-old athymic nude mice (Fox1^nu/nu Harlan, Indianapolis, Ind.). At least three mice were injected per group. Tumor size was determined weekly by measuring tumor length (L), width (W), and height (H) using vernier calipers (Vtumor=0.5236 LWH).

CD-31 = assay: microvessel density by CD-31 staining of WRO xenografts; type: in vivo, athymic nude mice; conditions: WRO xenografts compared to control xenografts
Protocol: Four tumors per group were formalin-fixed, paraffin-embedded, and individual sections stained with CD-31 (sc-1506-R, Santa Cruz, 1:200 dilution) specific antibody for 30-60 minutes and counterstained with hematoxylin. Antigen retrieval was done in EDTA at […] for 30 minutes after deparaffinization. Sections were blocked with peroxidase for 5 minutes and protein for 5 minutes. Antibody staining was visualized using Dako Envision plus System for 15 minutes followed by DAB chromogen for 10 minutes. Separate tumor sections were stained with hematoxylin and eosin to visualize tumor histology.
Stained slides were scanned using the Hamamatsu NanoZoomer (Bacus Laboratories, Inc., Chicago, Ill.). Digital images composed of multiple tiles (4096×64 pixel) were captured at 20× magnification. Image analysis was conducted as described elsewhere (Monahan et al., Endocrinology 150:4386-4394 (2009)). For each tumor section, the relative signal intensity from 10 randomly chosen fields (205×300 pixel) was quantified by histogram analysis (Adobe Photoshop). Data was expressed as signal intensity (signal pixel count divided by total image pixel count).

WRO cells [4] = assay: in vitro cell growth of stable WRO cells (absorbance at 490 nm); type: cell-based; conditions: stable WRO cells compared to WRO-vector cells; 72 hours
Protocol: as §1

KTC-3 cells = assay: in vivo xenograft tumor formation assay, KTC-3 anaplastic thyroid cancer cells; design: species or system athymic nude mice; conditions: KTC-3-PPFP anaplastic thyroid cancer cells; in 6 weeks
Protocol: as §4, §5

ADAM-17 [5] = assay: ADAM-17 transcript levels in WRO cells; type: cell-based; conditions: stable WRO cells
ARO cells = assay: in vivo xenograft tumor formation assay, ARO colon cancer cells; design: species or system athymic nude mice; conditions: ARO-PPFP colon cancer cells; by 4 weeks
Protocol: as §4, §5

miR-122 [6] = assay: miR-122 quantitation in WRO xenografts; type: in vivo, athymic nude mice
Protocol: RNA from each group of cells was isolated using TriZol Reagent (Invitrogen). RNA (1 μg) was reverse transcribed with oligo-dT primers using Message Sensor RT kit (Ambion, Austin, Tex.). PAX8/PPARγ fusion gene was detected by PCR using 5 μL of cDNA and a sense primer from exon 7 of PAX8 (5′-CGCGGATCCGCATT-GACTCACAGAGCA-3; SEQ ID NO:1; see, also, GenBank Accession No. NM_013953 and GI No.81295803) and antisense primer from exon 1 of PPARγ1 (5′-[…]-3; SEQ ID NO:2; GenBank Accession No. NM_138712 and GI No. 116284369). Glyceraldehyde 3-phosphate dehydrogenase (GAPDH) was amplified using kit primers. Xenografts were harvested at weeks 1 and 2 post induction and homogenized in T-PER (Pierce, Rockford, Ill.). RNA was extracted, and RT-PCR was performed for PPFP and GAPDH. Annealing temperature for PPFP and GAPDH was 55° C. for 30 seconds. miR-122 status was verified using TaqMan microRNA assays (Applied Biosystems) as per the manufacturer's instructions.
(§6) Stable cells (10^7) were resuspended in 100 μL of growth media and injected subcutaneously into both flanks of 5 week-old athymic nude mice (Fox1^nu/nu, Harlan, Indianapolis, Ind.). At least three mice were injected per group. Tumor size was determined weekly by measuring tumor length (L), width (W), and height (H) using vernier calipers (Vtumor=0.5236 LWH).

PPARγ [7] = assay: PPRE luciferase reporter assay in FTC-133 cells; type: cell-based; conditions: FTC-133-PPFP cells
Protocol: as §3

miR-122 [8] = assay: miR-122 quantitation in FTC-133 cells; type: cell-based
Protocol: as §1, §2

WRO cells [9] = assay: in vivo xenograft tumor formation assay, WRO stable cells; design: species or system athymic nude mice; conditions: WRO-PPFP cells, by 5 weeks
Protocol: as §6

FTC-133 cells = assay: in vivo xenograft tumor formation assay, FTC-133 stable cells; design: species or system athymic nude mice; conditions: FTC-133-PPFP cells (PTEN-null); by 4 weeks; vs vector only
Protocol: as §6

FRO cells = assay: in vivo xenograft tumor formation assay, FRO anaplastic thyroid cancer cells; design: species or system athymic nude mice; conditions: FRO-PPFP anaplastic thyroid cancer cells; in 5 weeks
Protocol: as §4, §5

With `O=C(Nc1ccccc1)c1cc([N+](=O)[O-])ccc1Cl` [GW9662, reference compound] the miR-122 expression (miR-122 [1]) was “not accompanied by increased miR-122 expression” and the PPRE activity (PPARγ [2]; WRO-vector cells treated with 10 μM GW9662 for 24 hours) was “significant decrease in PPRE activity”.
With “PPFP: PAX8/PPARγ fusion protein, constitutively expressed from a CMV promoter construct in stably transfected cancer cell lines” the “reduction of ADAM-17 mRNA expression” value (ADAM-17 [3]) was “not”, the “inhibition of xenograft tumor progression” value (DRO cells) was 57.5% and the “inhibition of PPARγ activity (activation of PPRE)” value (PPARγ [2]; stable WRO cells vs vector) was 29%. For the same molecule, the “decrease in microvessel density (CD-31 staining)” value (CD-31) was 2.1 fold, the “decrease (inhibition) of in vitro cell growth” value (WRO cells [4]) was 19% and the “inhibition of xenograft tumor progression” value (KTC-3 cells) was 77.2%. The “reduction of ADAM-17 mRNA expression” value (ADAM-17 [5]) was 50%, the “inhibition of xenograft tumor progression” value (ARO cells) was 39.5% and the “increase in miR-122 expression” value (miR-122 [6]) was 40.0 (p < 0.054) fold. The “inhibition of activation of PPRE” value (PPARγ [7]) was 69%, the miR-122 expression (miR-122 [8]; FTC-133(+PPFP) cells (PTEN-null)) was “did not increase miR-122 expression” and the “inhibition of xenograft tumor progression” value (WRO cells [9]) was 72%. For the same molecule, the “inhibition of xenograft tumor progression” value (WRO cells [9]; vs vector only) was 9 fold, the “inhibition of xenograft tumor progression” value (FTC-133 cells) was under 2 fold and the “inhibition of xenograft tumor progression” value (FRO cells) was 80.1%.
For “PTEN: PTEN transiently expressed from an expression plasmid in FTC-133 cells [reference compound]”, the “increase in miR-122 expression” value (miR-122 [8]; transient expression of PTEN in FTC-133(+PPFP) cells vs vector only cells) was 77 fold.
